Reference: US20090149375A1, “USE OF THE MST PROTEIN FOR THE TREATMENT OF A THROMBOEMBOLIC DISORDER” (SANOFI-AVENTIS, priority 2005, published 2009)

Molecular target: T1, GST-Mst1 (Homo sapiens, UniProt Q13043)
T1 sequence (Q13043 1-487): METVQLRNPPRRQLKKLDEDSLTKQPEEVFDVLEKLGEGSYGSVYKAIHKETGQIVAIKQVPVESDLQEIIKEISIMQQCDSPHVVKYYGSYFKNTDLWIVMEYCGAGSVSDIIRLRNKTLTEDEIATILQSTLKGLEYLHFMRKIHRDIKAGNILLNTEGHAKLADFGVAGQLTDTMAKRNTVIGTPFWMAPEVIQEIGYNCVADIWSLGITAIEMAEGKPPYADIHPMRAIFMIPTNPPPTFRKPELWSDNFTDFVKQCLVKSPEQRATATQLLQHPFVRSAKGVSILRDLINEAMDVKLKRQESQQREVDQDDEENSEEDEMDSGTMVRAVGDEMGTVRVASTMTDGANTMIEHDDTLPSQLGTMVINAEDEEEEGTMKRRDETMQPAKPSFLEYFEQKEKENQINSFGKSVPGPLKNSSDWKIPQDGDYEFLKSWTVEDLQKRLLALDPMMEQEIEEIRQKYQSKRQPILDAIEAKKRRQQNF
Test: GST-Mst1 in vitro kinase assay (ATP consumption assay)
Conditions: result in words

SMILES: CN[C@@H]1C[C@H]2O[C@@](C)([C@@H]1OC)n1c3ccccc3c3c4c(c5c6ccccc6n2c5c31)C(=O)NC4 [staurosporine]
- inhibition of MST1 kinase activity (ATP consumption): completely inhibit
- inhibition of MST1 kinase activity (ATP consumption) (listed as Staurosporine): inhibit completely
